Here are results for 4 compounds from patent US20190169140A1, “IDO1 INHIBITOR AND PREPARATION METHOD AND APPLICATION THEREOF” (SHANDONG LUYE PHARMACEUTICAL CO., LTD., priority 2016, published 2019).

The nature of series [1]: Death and body weight of tumor-bearing mice (CT26 model). It counts as in vivo. On the procedure:
Therefore, the dose of the two compounds, compound 360 and compound 117, in the present experiment was set as 100 mg/kg. In order to observe dose-efficacy relevance of 231, a dose of the compound 231 was set as 25, 50, 100, 200 mg/kg in the present experiment. All drugs were administered by gavage, twice a day.
The day of tumor inoculation was defined as Day 0, and the inoculated animals were grouped randomly on the day of inoculation. One day after the inoculation (Day 1), the administration was started. The experiment had 7 groups in total, with 12 animals in each group. See details in Table 12 for information on animal grouping and administration.
(3) As for animal weight, body weight of the mouse was weighed each time when the tumor diameter was measured or before the administration, and death of the animals was observed once a day.
7.1 Death and Body Weight of Tumor-Bearing Mice

Series [2] is described as follows: Liver microsome stability, human. Particulars: human liver microsomes; for Remaining % (60 min): 37° C.; for CLint scaled: read-out: Intrinsic clearance. It counts as in vitro ADME. On the procedure:
(§1) The purpose of research in the present experiment is assessing phase I metabolic stability of the sample for test in CD-1 mice, SD rats, and human liver microsomes.
(§2) The animals and human liver microsomes used in this test system were purchased from BD Gentest, Xenotech, Corning or BioreclamationIVT, and stored in a refrigerator at −80° C. before use.
(§3) The sample for test and control were incubated together with the microsomes under a condition of 37° C. for 60 minutes, and a cold acetonitrile solution (or other organic solvents) containing an internal standard substance was added at a designated time point to terminate the reaction. After centrifugation, a resultant supernatant was assayed in a semiquantitative manner through liquid chromatography tandem mass spectrometry (LC/MS/MS). Software Analyst (AB Sciex, Framingham, Mass., USA) was used for processing retention time of analyte and internal standard, and achieving chromatogram collection, and chromatogram integration
(§4) An in vitro elimination rate constant ke of the sample was obtained by converting a ratio of the sample to a peak area of the internal standard to remaining percentage, to calculate an in vitro elimination rate and half-life of the sample for test.
(Liver microsomes are a subcellular fraction often used to study metabolism.)

Series [3] in a line: Liver microsome stability, rat. Particulars: rat liver microsomes; for CLint scaled: SD, read-out: Intrinsic clearance; for Remaining % (60 min): 37° C. Format: in vitro ADME, SD rats. As to the method:
as §1, §2, §3, §4

In series [4] the target is T1, CYP2C9 (Homo sapiens, UniProt P11712).
T1 construct: tissue Corning Inc. or XenoTech, LLC. or other suppliers; host or cells: mixed human liver microsomes
T1 sequence (P11712 whole entry): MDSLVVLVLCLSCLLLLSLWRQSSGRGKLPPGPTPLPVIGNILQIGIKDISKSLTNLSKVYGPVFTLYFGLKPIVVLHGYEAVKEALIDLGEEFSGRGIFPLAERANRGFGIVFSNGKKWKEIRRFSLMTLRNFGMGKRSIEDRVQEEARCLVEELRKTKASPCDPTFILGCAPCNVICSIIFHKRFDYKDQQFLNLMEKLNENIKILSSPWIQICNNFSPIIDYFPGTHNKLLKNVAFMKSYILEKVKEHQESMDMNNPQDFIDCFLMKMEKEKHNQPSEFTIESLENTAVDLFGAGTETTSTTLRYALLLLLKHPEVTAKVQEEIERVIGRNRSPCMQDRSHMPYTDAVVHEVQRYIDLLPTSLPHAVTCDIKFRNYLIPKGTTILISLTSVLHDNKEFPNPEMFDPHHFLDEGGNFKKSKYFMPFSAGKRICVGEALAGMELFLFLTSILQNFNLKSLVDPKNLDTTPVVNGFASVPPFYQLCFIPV
Briefly: Inhibition on human liver microsome CYP2C9. Particulars: human liver microsomes; for IC50: 5-in-1 probe substrate. It counts as in vitro ADME. As to the method: (§5) The research project aimed at evaluating inhibitory ability of a sample for test on human liver microsome cytochrome P450 isozymes (CYP1A2, CYP2C9, CYP2C19, CYP2D6, and CYP3A4) with use of a 5-in-1 probe substrate for CYP isozymes.
(§6) Mixed human liver microsomes (HLM) were purchased from Corning Inc. (Steuben, N.Y., USA) or XenoTech, LLC. (Lenexa, Kans., USA) or other suppliers, and stored in a condition below −70° C. before use.
(§7) Diluted working solutions of the sample for test in serial concentrations were added to an incubation system containing the human liver microsomes, probe substrate, and accessory factors of a cycling system, and a control containing no sample for test but a solvent was taken as a control for enzymatic activity (100%). Concentration of metabolites generated by the probe substrate in the sample was measured with a method of liquid chromatography-tandem mass spectrometry (LC-MS/MS). Nonlinear regression analysis of mean percentage activity vs concentration of the sample for test was carried out using SigmaPlot (V.11). An IC^50 value was calculated through a three-parameter or four-parameter inflection logarithmic equation.

Series [5] has as its target T2, CYP2C19 (Homo sapiens, UniProt P33261).
T2 construct: tissue Corning Inc. or XenoTech, LLC. or other suppliers; host or cells: mixed human liver microsomes
Briefly: Inhibition on human liver microsome CYP2C19. Format: in vitro ADME. Particulars: human liver microsomes; for IC50: 5-in-1 probe substrate. On the procedure:
as §5, §6, §7

Series [6] concerns the target T3, CYP3A4 (Homo sapiens, UniProt P08684).
T3 construct: tissue Corning Inc. or XenoTech, LLC. or other suppliers; host or cells: mixed human liver microsomes
Briefly: Inhibition on human liver microsome CYP3A4. Particulars: human liver microsomes; for IC50: 5-in-1 probe substrate. It counts as in vitro ADME. On the procedure:
as §5, §6, §7

Series [7] concerns the target T4, CYP1A2 (Homo sapiens, UniProt P05177).
T4 construct: tissue Corning Inc. or XenoTech, LLC. or other suppliers; host or cells: mixed human liver microsomes
T4 sequence (P05177 1-516): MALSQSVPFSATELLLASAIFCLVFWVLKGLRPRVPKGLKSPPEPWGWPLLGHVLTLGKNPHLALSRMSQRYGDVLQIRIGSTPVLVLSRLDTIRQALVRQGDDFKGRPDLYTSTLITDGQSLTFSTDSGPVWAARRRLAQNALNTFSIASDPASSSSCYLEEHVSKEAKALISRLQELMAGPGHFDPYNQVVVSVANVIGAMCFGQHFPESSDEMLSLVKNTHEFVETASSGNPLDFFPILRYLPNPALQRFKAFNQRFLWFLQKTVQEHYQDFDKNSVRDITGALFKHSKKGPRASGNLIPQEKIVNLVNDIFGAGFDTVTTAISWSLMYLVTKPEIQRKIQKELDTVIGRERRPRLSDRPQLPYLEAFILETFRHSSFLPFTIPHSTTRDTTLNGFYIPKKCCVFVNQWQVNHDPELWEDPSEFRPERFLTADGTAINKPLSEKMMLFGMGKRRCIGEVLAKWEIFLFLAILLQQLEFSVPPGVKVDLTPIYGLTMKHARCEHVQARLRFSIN
Briefly: Inhibition on human liver microsome CYP1A2. Particulars: human liver microsomes; for IC50: 5-in-1 probe substrate. Format: in vitro ADME. On the procedure: as §5, §6, §7

T3 sequence (P08684 whole entry): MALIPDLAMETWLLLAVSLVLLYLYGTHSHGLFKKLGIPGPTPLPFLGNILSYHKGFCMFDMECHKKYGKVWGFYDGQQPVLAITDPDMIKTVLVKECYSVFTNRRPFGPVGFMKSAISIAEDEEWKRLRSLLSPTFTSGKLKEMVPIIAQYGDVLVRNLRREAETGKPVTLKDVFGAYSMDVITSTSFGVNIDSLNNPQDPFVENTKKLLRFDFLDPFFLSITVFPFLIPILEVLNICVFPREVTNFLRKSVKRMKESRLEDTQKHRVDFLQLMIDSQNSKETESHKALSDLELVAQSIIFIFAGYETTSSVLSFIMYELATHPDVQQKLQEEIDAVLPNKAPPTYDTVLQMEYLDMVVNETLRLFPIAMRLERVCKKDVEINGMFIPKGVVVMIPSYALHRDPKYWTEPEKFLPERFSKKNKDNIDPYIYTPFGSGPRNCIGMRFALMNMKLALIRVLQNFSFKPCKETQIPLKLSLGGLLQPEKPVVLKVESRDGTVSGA
T2 sequence (P33261 whole entry): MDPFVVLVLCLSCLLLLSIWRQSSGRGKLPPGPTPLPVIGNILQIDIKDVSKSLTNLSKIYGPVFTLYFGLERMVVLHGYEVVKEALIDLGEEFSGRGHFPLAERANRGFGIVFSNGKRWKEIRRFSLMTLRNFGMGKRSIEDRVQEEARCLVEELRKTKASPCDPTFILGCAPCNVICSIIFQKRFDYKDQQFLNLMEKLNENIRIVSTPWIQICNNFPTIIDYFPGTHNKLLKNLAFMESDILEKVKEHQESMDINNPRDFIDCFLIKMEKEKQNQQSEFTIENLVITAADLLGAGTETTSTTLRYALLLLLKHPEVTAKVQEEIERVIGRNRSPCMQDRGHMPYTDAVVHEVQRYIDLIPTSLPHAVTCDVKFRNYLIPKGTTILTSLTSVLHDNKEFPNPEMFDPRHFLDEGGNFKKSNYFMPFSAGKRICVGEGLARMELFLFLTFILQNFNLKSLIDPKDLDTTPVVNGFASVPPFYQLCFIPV

As for `NS(=O)(=O)NCCSc1nonc1/C(=N/O)Nc1ccc(F)c(Br)c1` [Compound 0117], in series [1] (100 mg/kg gavage BID), the “Rate of Weight Change of D17 vs D1” value was 8.5%. Further, the “body weight compared with the control group when the experiment was ended” value in series [1] (100 mg/kg gavage BID) is “remarkably decreased weight”. Besides, the “Body weight of tumor-bearing mice” value in series [1] (100 mg/kg gavage BID, D12) amounted to 23.1 g; in series [1] (100 mg/kg gavage BID, D14), 23.3 g; in series [1] (100 mg/kg gavage BID, D17), 24.2 g; in series [1] (100 mg/kg gavage BID, Day1), 22.3 g; in series [1] (100 mg/kg gavage BID, Day3), 22.7 g; in series [1] (100 mg/kg gavage BID, Day6), 22.7 g. The “Body weight of tumor-bearing mice” value in series [1] (100 mg/kg gavage BID, Day8) is given as 21.8 g; in series [1] (100 mg/kg gavage BID, Day10), 22.9 g.
For `CC(=O)NCCSc1nonc1/C(=N/O)Nc1ccc(F)c(Br)c1` [Compound 0227], the “metabolic stability in words” value in series [2] is “metabolized in a moderate manner”; in series [3], “metabolized quickly”. Further, the entries for the “Remaining % (60 min)” value in series [2] and in series [3] were 56.9% and 21.6%, respectively. Besides, the figures for the CLint scaled in series [2] and in series [3] were 15.3 mL/min/kg and 91.9 mL/min/kg, respectively. In addition, the IC50 – broadly, the concentration needed to halve the response being measured – came to 15.9 µM in series [4], 3.61 µM in series [5], 39.2 µM in series [6] and 13 µM in series [7]. In addition, the “inhibiting effect on CYP2C19 in words” value in series [5] is “intermediate degree”.
As to `NC(=O)NCCSc1nonc1/C(=N/O)Nc1ccc(F)c(Br)c1` [Compound 0231], the “metabolic stability in words” value in series [2] and in series [3] was “metabolized in a relatively steady manner” in each case. Moreover, the “Remaining % (60 min)” value in series [2] was 81.6%; in series [3], 64.8%. Further, the CLint scaled is less than 8.6 mL/min/kg in series [2] and 23.7 mL/min/kg in series [3]. Also, the “inhibiting effect on CYP2C9 in words” value in series [4] is reported as “relatively weak effect”. The IC50 in series [4] is greater than 50 µM; in series [5], 36.4 µM; in series [6], greater than 50 µM; in series [7], greater than 50 µM. Also, the “inhibiting effect on CYP2C19 in words” value in series [5] is on record as “relatively weak effect”. Besides, the “inhibiting effect on CYP3A4 in words” value in series [6] is given as “relatively weak effect”. Moreover, the “Rate of Weight Change of D17 vs D1” value in series [1] (25 mg/kg gavage BID) turned out to be 12.0%; in series [1] (50 mg/kg gavage BID), 7.5%; in series [1] (100 mg/kg gavage BID) it was 8.4%; in series [1] (200 mg/kg gavage BID), 4.4%. In addition, the “body weight compared with the control group when the experiment was ended” value in series [1] (25 mg/kg gavage BID) is “no significant difference”; in series [1] (50 mg/kg gavage BID), “remarkably decreased weight”; in series [1] (100 mg/kg gavage BID), “remarkably decreased weight”; in series [1] (200 mg/kg gavage BID) it was “remarkably decreased weight”. Moreover, the “Body weight of tumor-bearing mice” value was 23.9 g in series [1] (25 mg/kg gavage BID, D12); 24.4 g in series [1] (25 mg/kg gavage BID, D14); 25.2 g in series [1] (25 mg/kg gavage BID, D17); 22.5 g in series [1] (25 mg/kg gavage BID, Day1); 21.5 g in series [1] (25 mg/kg gavage BID, Day3); 23.3 g in series [1] (25 mg/kg gavage BID, Day6). Besides, the “Body weight of tumor-bearing mice” value in series [1] (25 mg/kg gavage BID, Day8) is reported as 23.0 g; in series [1] (25 mg/kg gavage BID, Day10) it was 23.1 g; in series [1] (50 mg/kg gavage BID, D12) it was 23.4 g; in series [1] (50 mg/kg gavage BID, D14) it was 24.2 g; in series [1] (50 mg/kg gavage BID, D17) it was 24.5 g; in series [1] (50 mg/kg gavage BID, Day1), 22.8 g. Further, the “Body weight of tumor-bearing mice” value came out at 23.0 g in series [1] (50 mg/kg gavage BID, Day3); 22.7 g in series [1] (50 mg/kg gavage BID, Day6); 22.6 g in series [1] (50 mg/kg gavage BID, Day8); 23.2 g in series [1] (50 mg/kg gavage BID, Day10); 23.5 g in series [1] (100 mg/kg gavage BID, D12); 24.3 g in series [1] (100 mg/kg gavage BID, D14). Besides, the “Body weight of tumor-bearing mice” value in series [1] (100 mg/kg gavage BID, D17) was 24.4 g; in series [1] (100 mg/kg gavage BID, Day1) it was 22.5 g; in series [1] (100 mg/kg gavage BID, Day3) it was 22.7 g; in series [1] (100 mg/kg gavage BID, Day6), 22.8 g; in series [1] (100 mg/kg gavage BID, Day8), 23.2 g; in series [1] (100 mg/kg gavage BID, Day10), 23.4 g. The “Body weight of tumor-bearing mice” value in series [1] (200 mg/kg gavage BID, D12) was 22.3 g; in series [1] (200 mg/kg gavage BID, D14) it was 22.9 g; in series [1] (200 mg/kg gavage BID, D17), 23.7 g; in series [1] (200 mg/kg gavage BID, Day1), 22.7 g; in series [1] (200 mg/kg gavage BID, Day3) it was 23.2 g; in series [1] (200 mg/kg gavage BID, Day6), 20.8 g. Besides, the “Body weight of tumor-bearing mice” value in series [1] (200 mg/kg gavage BID, Day8) is 21.9 g; in series [1] (200 mg/kg gavage BID, Day10), 22.0 g. Further, the “inhibiting effect on CYP1A2 in words” value in series [7] was “relatively weak effect”.
`NS(=O)(=O)NCCNc1nonc1C(=NO)Nc1ccc(F)c(Br)c1` [Compound 360, INCB024360, reference compound]: in series [1] (100 mg/kg gavage BID), the “Rate of Weight Change of D17 vs D1” value was 9.4%. The “body weight compared with the control group when the experiment was ended” value in series [1] (100 mg/kg gavage BID) was “no significant difference”. For the same compound, the “Body weight of tumor-bearing mice” value was 24.5 g in series [1] (100 mg/kg gavage BID, D12); 25.0 g in series [1] (100 mg/kg gavage BID, D14); 25.3 g in series [1] (100 mg/kg gavage BID, D17); 23.2 g in series [1] (100 mg/kg gavage BID, Day1); 23.5 g in series [1] (100 mg/kg gavage BID, Day3); 23.7 g in series [1] (100 mg/kg gavage BID, Day6). For the same compound, the “Body weight of tumor-bearing mice” value in series [1] (100 mg/kg gavage BID, Day8) was determined as 23.5 g; in series [1] (100 mg/kg gavage BID, Day10), 23.9 g.
